How the values were obtained:
[1] = cited from earlier work
[2] = clinical; conditions: human, in vivo
Protocol: Patients were asked to determine the time of drug intake. The collected serum and whole peripheral blood samples were stored at − 80 °C until analysis.
Several candidate PopPK models with different structures were compared based on the goodness-of-fit (GOF) plots and the objective function value (OFV) expressed as minus twice log likelihood (−2LL), and the difference in OFV between the two nested models was statistically evaluated using the chi-square test (the decrease in −2LL >3.84, p < 0.05, was considered statistically significant).
Stepwise covariate analysis was performed to evaluate the effect of covariates on clearance and volume of distribution. The significance of the effect was assessed by the −2LL value; decrease in −2LL of >3.84 (p < 0.050) for the forward addition was considered significant. The impact of body weight (BW), albumin (ALB), age (AGE), sex, aspartate aminotransferase (AST), and alanine aminotransferase (ALT) levels on CLparent/F, CLm5/F, and CLm7/F was evaluated. In addition, BW, ALB, AGE, and sex were evaluated on Vparent/F, Vm5/F, and Vm7/F. The covariates were modeled as shown in equation (c) in the power form for continuous covariates, equation (d) with log-transformation for continuous covariates with outliers, and equation (e) for categorical covariates: […]
The candidate PopPK models were evaluated by goodness of fit, ∆−2LL values, η-shrinkage, and relative standard error (RSE%). […] The uncertainty of the parameters was estimated by performing a bootstrap. The original dataset was randomly resampled to generate 1000 samples, and the parameters estimated from the successful runs were compared to those estimated from the original dataset.

[3] = human, in vivo
Protocol: This prospective, longitudinal observational study was designed and conducted at the Ageo Central General Hospital from February 2019 to July 2020 and Keio University Hospital from June 2020 to April 2022. The primary endpoint was the association of exposures to osimertinib, AZ5104, AZ7550, or germline polymorphisms with AE severity. […] Patients who were mentally or physically incapable of providing informed consent were excluded from the study. […] The study was conducted with adherence to the Declaration of Helsinki.

[4] = in vivo
Protocol: Polymorphisms in EGFR, ABCG2, ABCB1, and POR (Online Resource, Appendix A) were analyzed using TaqMan® probe-based assays (Applied Biosystems, Foster City, CA, USA), whereas the ABCG2 polymorphism (rs2231137) was studied using the CycleavePCR® assay (TaKaRa Bio Inc., Kusatsu, Japan). The detailed genotyping method is provided in the Online Resource (Appendix A).
Germline polymorphism and the worst grade of AE occurring in each patient were analyzed for pharmacogenomics–toxicity relationship analysis.
The cut-off date for data collection was April 4, 2022. Continuous variables such as AUC0–24 and laboratory data are presented as median (interquartile range, IQR); estimates of PopPK parameters are presented as mean (standard error, SE). […] Receiver operating characteristic (ROC) curve analysis was used to evaluate the discrimination potential of AUC0–24 for grade ≥ 2 AEs. […] All p-values were two-sided, and statistical significance was set at p < 0.05.
The EGFR polymorphisms (rs2293348, rs4947492, rs11977388, rs2227983, and rs884225), ABCG2 (rs2231142 and rs2622604), ABCB1 (rs1128503, rs1045642, and rs2032582), and POR (rs17685 and rs1057868) were analyzed using Taqman® probe-based assays (Applied Biosystems, CA, USA). The probes (FAM/VIC-fluorescent) and primers for these polymorphisms were purchased from Applied Biosystems (TaqMan® SNP Genotyping Assay ID: C _ 144945_20, C _ 27876021_10, C _ 321871_10, C _ 16170352_20, and C _ 9501579_10 for EGFR polymorphisms; C _ 15854163_70 and C _ 9510352_10 for ABCG2 polymorphisms; C _ 7586662_10, C _ 7586657_20, C_11711720D_40, and C_11711720C_30 for ABCB1 polymorphisms; and C _ 8890133_30 and C _ 8890131_30 for POR polymorphisms). The real-time PCR reaction mix included 4.5 ng of DNA template diluted in 4.5 µL DNase‑Free distilled water, 5 µL TaqMan® Universal Master Mix II with UNG (Uracil-N-Glycosylase), and 0.5 µL TaqMan® SNP Genotyping Assay mix, including the primers and probes, in a total volume of 10 µL. The reactions were performed under the following conditions: UNG incubation at 50 °C for 2 min and polymerase activation at 95 °C for 10 min, followed by 50 cycles of 95 °C for 15 s and 60 °C for 60 s.
ABCG2 polymorphism (rs2231137) was studied using the CycleavePCR® assay (TaKaRa Bio Inc., Kusatsu, Shiga, Japan). The primers and probes for ABCG2 rs2231137 were designed using the CycleavePCR Assay Designer (SNPs, TaKaRa Bio Inc.): forward 5′- […]-3′; reverse 5′-[…]-3′; FAM-labeled probe 5′-(Eclipse)[…][G]TG(FAM)-3′; and HEX-labeled probe 5′-(Eclipse)TATCCCA[A]TGT(HEX)-3′. The real-time PCR reaction mix per reaction included 4 ng of DNA template diluted in 10.5 μL DNase‑Free distilled water, 12.5 μL CycleavePCR Reaction Mix, 0.5 μL each of forward and reverse primers, and 1 μL each of FAM/HEX-labeled probes in a total volume of 26 μL. The reactions were performed under the following conditions: initial denaturation at 95 °C for 10 s, followed by 50 cycles at 95 °C for 5 s, 55 °C for 10 s, and 72 °C for 20 s.
After real-time PCR, the result of the allelic discrimination was plotted by reading the generated fluorescence using CFX Manager Software version 3.1 (Bio-Rad Laboratories). For quality control, all the polymorphisms were genotyped more than twice.

[5] = cited from earlier work; remark: listed apart in the source

For `C=CC(=O)Nc1cc(Nc2nccc(-c3cn(C)c4ccccc34)n2)c(OC)cc1N(C)CCN(C)C` [osimertinib], the “Patients experiencing grade ≥ 2 adverse events” value [1] is listed as “over 80%”, the “Patients experiencing grade ≥ 3 adverse events” value [1] is listed as greater than 30% and the “Clearance CL/F (θ1, θ4, θ6)” value [2] is listed as 17.37 L/h. The “Coefficient of variation for clearance (CL/F)” value [2] was 30%, the “Volume of distribution V/F (θ2, θ5, θ7)” value [2] was 1386 L and the Vd/F ([2]; Volume of distribution V/F (θ2, θ5, θ7)) was 1270 L. For the same molecule, the “Association of EGFR-TKI treatment line with severe AEs” value [3] was “higher frequency of severe AEs in patients receiving therapy as first-line treatment”, the “Severe liver dysfunction within the observation period” value [3] was “No patient” and the “Patients who experienced severe AEs (grade 3 or leading to dose discontinuation)” value ([3]; 3 months) was “Approximately 25%”. For the same molecule, the “Patients with grade ≥ 2 skin disorders (most prevalent grade ≥ 2 AE)” value ([3]; 3 months) was 63%, the “Patients with interstitial lung disease leading to treatment discontinuation” value ([3]; 3 months) was 2.0% and the “Any grade ≥ 2 AEs in patients with ABCG2 rs2231137 G/A or A/A genotypes” value [4] was “higher frequency”. The “Association of ABCB1 rs1128503 C > T (C/T and T/T genotypes) with any grade ≥ 2 AEs” value [4] was “significant association”, the “Association of ABCB1 rs2032582 G > T/A (A/T and G/T genotypes) with any grade ≥ 2 skin disorders” value [4] was “associated” and the “Association of ABCB1 rs2032582 G > T/A (A/T and G/T genotypes) with grade ≥ 2 lymphocyte count decrease” value [4] was “associated”. The “Association of EGFR rs2293348 C > T (C/T genotype) with any severe AEs” value [4] was “associated with any severe AEs”, the “Association of EGFR rs2293348 C > T (C/T genotype) with grade ≥ 1 or ≥ 2 anorexia” value [4] was “significantly associated” and the “Association of EGFR rs4947492 G > A (A/A genotype) with any severe AEs” value [4] was “associated with any severe AEs”. The “Association of polymorphisms in POR with any AEs or PK” value [4] was “not significantly associated”, the Half-life [5] was 59.7 h and the Oral bioavailability [5] was 69.8%.
